Test results as given in US20140242093A1, “METHODS AND COMPOSITIONS FOR MODULATING THE INNATE IMMUNE RESPONSE AND/OR MYOGENESIS IN A MAMMALIAN SUBJECT” (FRED HUTCHINSON CANCER RESEARCH CENTER, priority 2011, published 2014).

Test system: control human primary myoblasts
Assay: Expression microarray of primary myoblasts transduced with lentivirus carrying DUX4-fl, DUX4-s or GFP
Experimental: Primary human myoblasts were collected and cultured as previously described (Snider et al., 2010). Primary myoblasts were maintained at or below 70% confluency for proliferation. For differentiation, cells were allowed to reach 95-100% confluency in growth medium. Once confluency was reached, the cells were changed to differentiation medium (F10 media supplemented with 1% horse serum, 10 μg/mL insulin, and 10 μg/mL transferrin, penicillin/streptomycin) and maintained for 4 days. Human RD cells were grown in DMEM in 10% bovine calf serum (Hyclone) and penicillin/streptomycin. The primary myoblasts were transduced with lentivirus carrying DUX-fl, DUX4- or GFP (MOI=15).
Expression microarrays were performed on the transduced cells at 24 hours after transduction as follows. […] Samples were analyzed by Illumina Human Whole Genome microarrays. Probe intensities were corrected, normalized, and summarized by the Lumi package of Bioconductor (Du et al., 2008). Differentially expressed genes were identified by the LIMMA package of Bioconductor (Wettenhall and Smyth, 2004). Gene set enrichment analysis (GSEA) was performed using the Bioconductor GOstats package (Falcon and Gentleman, 2007).

## DUX4-fl: full-length DUX4 protein (SEQ ID NO:110), expressed from lentiviral or pCS2 vectors or in vitro translated
Refseq NM_032166.2
  fc of ATRIP (expression array): −1.006
Refseq NM_032171.1
  CEP78 expression fc: 2.035
Refseq NM_032195.1
  SON expression fc: 2.055
Refseq NM_032239.2
  LARP1B expression fc: 1.858
Refseq NM_032286.2
  MED10 expression fc: 1.965
Refseq NM_032324.1
  C1orf57 fc: −1.117
Refseq NM_032377.3
  ELOF1 expression fc: 1.884
Refseq NM_032413.2
  fc of C15orf48 (expression array): −0.8681
Refseq NM_032471.4
  PKIB expression fc: 1.858
Refseq NM_032505.1
  KBTBD8 expression fc: 3.076
Refseq NM_032508.1
  TMEM185A expression fc: 2.292
Refseq NM_032510.3
  PARD6G fc: −1.161
Refseq NM_032565.2
  fc of EBPL (expression array): −1.006
Refseq NM_032592.3
  fc of ACCS (expression array): −1.038
Refseq NM_032626.5
  RBBP6 expression fc: 1.986
Refseq NM_032681.1
  SPRYD5 expression fc: 8.045
Refseq NM_032802.3
  fc of SPPL2A (expression array): −0.7524
Refseq NM_032827.4, cultured human skeletal muscle
  ATOH8 expression fc: −2.073
Refseq NM_032854.2
  CORO6 fc: −1.12
Refseq NM_032862.2
  fc of TIGD5 (expression array): −1.003
Refseq NM_032992.2
  CASP6 expression fc: 2.035
Refseq NM_033034.1
  TRIM5 fc: −1.114
Refseq NM_033255.2, cultured human skeletal muscle
  EPSTI1 expression fc: −4.12
Refseq NM_033285.2
  TP53INP1 fc: −1.138
Refseq NM_033294.2
  CASP1 fc: −1.17
Refseq NM_033405.2, cultured human skeletal muscle
  PRIC285 expression fc: −2.608
Refseq NM_033414.2
  ZNF622 expression fc: 2.406
Refseq NM_052839.2
  PANX2 expression fc: 3.831
Refseq NM_052865.2
  fc of C20orf72 (expression array): −1.04
Refseq NM_052942.2
  fc of GBP5 (expression array): −0.9094
Refseq NM_052947.3
  fc of ALPK2 (expression array): −0.3826
Refseq NM_053034.1
  fc of ANTXR1 (expression array): −1.013
Refseq NM_057089.2
  AP1S1 fc: −1.095
Refseq NM_057182.1
  CCNE1 expression fc: 1.863
Refseq NM_058229.2
  FBXO32 fc: −1.177
Refseq NM_058241.1
  CCNT2 expression fc: 1.876
Refseq NM_080546.3
  SLC44A1 fc: −1.132
Refseq NM_080592.2
  fc of C2orf28 (expression array): −1.029
Refseq NM_080677.1
  DYNLL2 expression fc: 2.736
Refseq NM_080731.1
  HOM-TES-103 fc: −1.065
Refseq NM_080740.3
  ZNF280A expression fc: 3.798
Refseq NM_080757.1, cultured human skeletal muscle
  C20orf127 expression fc: −2.098
Refseq NM_080841.2
  fc of PTPRA (expression array): −1.02
Refseq NM_080874.2
  ASB5 fc: −1.135
Refseq NM_133172.2, cultured human skeletal muscle
  APBB3 expression fc: −1.994
Refseq NM_133375.2
  fc of DIS3L (expression array): −1.005
Refseq NM_138409.1
  C6orf117 expression fc: 2.446
Refseq NM_138432.2
  fc of SDSL (expression array): −1.011
Refseq NM_138800.1
  TRIM43 expression fc: 5.806
Refseq NM_138809.3, cultured human skeletal muscle
  CMBL expression fc: −1.992
Refseq NM_139241.1
  fc of FGD4 (expression array): −0.5592
Refseq NM_139314.1
  ANGPTL4 fc: −1.064
Refseq NM_144614.2
  MBD3L2 expression fc: 7.623
Refseq NM_144616.2
  JSRP1 fc: −1.175
Refseq NM_144641.1
  fc of PPM1M (expression array): −1.015
Refseq NM_144695.2
  fc of C1orf58 (expression array): −0.4075
Refseq NM_144779.1
  FXYD5 fc: −1.065
Refseq NM_145018.2
  Cllorf82 expression fc: 2.531
Refseq NM_145057.2
  CDC42EP5 fc: −1.137
Refseq NM_145263.2, cultured human skeletal muscle
  SPATA18 expression fc: −1.989
Refseq NM_145279.4
  MOBKL2C fc: −1.106
Refseq NM_145288.1
  ZNF296 expression fc: 5.536
Refseq NM_145792.1
  fc of MGST1 (expression array): −1.032
Refseq NM_145798.2
  OSBPL7 fc: −1.145
Refseq NM_147184.1, cultured human skeletal muscle
  TP53I3 expression fc: −1.961
Refseq NM_152219.3
  fc of GJD3 (expression array): −1.028
Refseq NM_152282.3
  ACPL2 fc: −1.079
Refseq NM_152379.2
  fc of C1orf131 (expression array): −1.023
Refseq NM_152542.2
  fc of PPM1K (expression array): −0.146
Refseq NM_152589.1
  C12orf50 expression fc: 4.522
Refseq NM_152608.3
  C1orf55 expression fc: 2.049
Refseq NM_152649.1, cultured human skeletal muscle
  MLKL expression fc: −2.992
Refseq NM_152677.1
  ZSCAN4 expression fc: 8.322
Refseq NM_152703.2, cultured human skeletal muscle
  SAMD9L expression fc: −2.532
Refseq NM_152718.2, cultured human skeletal muscle
  VWCE expression fc: −3.317
Refseq NM_152783.3
  fc of D2HGDH (expression array): −1.031
Refseq NM_152877.1
  FAS fc: −1.133
Refseq NM_153000.3, cultured human skeletal muscle
  APCDD1 expression fc: −1.894
Refseq NM_153321.1
  PMP22 fc: −1.103
Refseq NM_153449.2
  SLC2A14 expression fc: 2.374
Refseq NM_153611.3, cultured human skeletal muscle
  CYBASC3 expression fc: −1.945
Refseq NM_170699.2
  GPBAR1 expression fc: 1.936
Refseq NM_170722.1
  NLRX1 fc: −1.167
Refseq NM_172002.3
  fc of HSCB (expression array): −1.009
Refseq NM_172070.2
  fc of ZNF650 (expression array): −1.016
Refseq NM_172374.1
  fc of IL4I1 (expression array): −0.7571
Refseq NM_173484.3
  KLF17 expression fc: 1.779
Refseq NM_173587.2
  fc of RCOR2 (expression array): −1.051
Refseq NM_173674.1
  fc of DCBLD1 (expression array): −0.667
Refseq NM_173701.1, cultured human skeletal muscle
  WARS expression fc: −1.917
Refseq NM_173824.2
  fc of C3orf38 (expression array): −0.5458
Refseq NM_174916.1
  fc of UBR1 (expression array): −0.08618
Refseq NM_174921.1
  fc of C4orf34 (expression array): −1.044
Refseq NM_174938.3
  FRMD3 fc: −1.116
Refseq NM_175617.3, cultured human skeletal muscle
  MT1E expression fc: −2.067
Refseq NM_175852.3
  TXLNA fc: −1.157
Refseq NM_176870.2, cultured human skeletal muscle
  MT1M expression fc: −2.921
Refseq NM_176895.1
  PPAP2A fc: −1.106
Refseq NM_177436.1
  CSE1L expression fc: 2.937
Refseq NM_177968.2
  PPM1B expression fc: 1.831
Refseq NM_178006.1
  fc of STARD13 (expression array): −1.001
Refseq NM_178314.2
  RILPL1 fc: −1.072
Refseq NM_181054.1
  HIF1A fc: −1.15
Refseq NM_181353.1
  ID1 fc: −1.166
Refseq NM_181435.4
  C1QTNF3 expression fc: 1.974
Refseq NM_181677.1
  PPP2R2B expression fc: 4.13
Refseq NM_181876.2
  PPP2R2C fc: −1.064
Refseq NM_182557.2
  BCL9L fc: −1.111
Refseq NM_182972.2
  fc of IRF2BP2 (expression array): −1.041
Refseq NM_182985.3
  fc of TRIM69 (expression array): −1.002
Refseq NM_184086.1
  fc of TRIM55 (expression array): −1.053
Refseq NM_184234.1
  RBM39 expression fc: 1.8
Refseq NM_194281.3
  INO80C expression fc: 1.98
Refseq NM_194285.2
  SPTY2D1 expression fc: 3.286
Refseq NM_194431.1
  fc of RNASE4 (expression array): −1.06
Refseq NM_197966.1
  BID fc: −1.078
Refseq NM_198055.1
  fc of MZF1 (expression array): −1.004
Refseq NM_198150.1
  fc of ARSK (expression array): −0.8435
Refseq NM_198291.1
  fc of SRC (expression array): −1.041
Refseq NM_198450.3
  fc of APOOL (expression array): −0.5757
Refseq NM_198459.2
  DENND2C expression fc: 2.609
Refseq NM_198479.2
  TPRX1 expression fc: 4.483
Refseq NM_198576.2, cultured human skeletal muscle
  AGRN expression fc: −2.612
Refseq NM_198594.1, cultured human skeletal muscle
  C1QTNF1 expression fc: −3.846
Refseq NM_198833.1
  fc of SERPINB8 (expression array): −0.1046
Refseq NM_198925.1, cultured human skeletal muscle
  SEMA4B expression fc: −1.94
Refseq NM_199001.1, cultured human skeletal muscle
  C9orf169 expression fc: −2.509
Refseq NM_199048.1
  T1560 expression fc: 2.769
Refseq NM_199139.1, cultured human skeletal muscle
  XAF1 expression fc: −3.622
Refseq NM_199161.1, cultured human skeletal muscle
  SAA1 expression fc: −4.138
Refseq NM_199181.2
  C20orf117 fc: −1.08
Refseq NM_199203.1
  fc of TMEM189-UBE2V1 (expression array): −1.036
Refseq NM_201554.1, cultured human skeletal muscle
  DGKA expression fc: −1.955
Refseq NM_201599.1
  fc of ZMYM3 (expression array): −1.022
Refseq NM_203301.1
  FBXO33 expression fc: 3.22
Refseq NM_203446.1
  SYNJ1 expression fc: 2.433
Refseq NM_207315.2
  fc of CMPK2 (expression array): −0.8826
Refseq NM_207352.2
  CYP4V2 fc: −1.159
Refseq NM_207380.1
  fc of C15orf52 (expression array): −1.016
Refseq NM_207465.1
  FLJ45337 expression fc: 3.685
Refseq NM_001001323.1
  ATP2B1 fc: −1.082
Refseq NM_001001692.1
  FLJ45139 expression fc: 2.451
Refseq NM_001001821.1
  OR2T34 expression fc: 4.519
Refseq NM_001001995.1
  fc of GPM6B (expression array): −0.3998
Refseq NM_001002006.1
  NT5C1B expression fc: 3.495
Refseq NM_001002010.1
  fc of NT5C3 (expression array): −0.6592
Refseq NM_001002814.1
  RAB11FIP1 expression fc: 1.987
Refseq NM_001003679.1
  fc of LEPR (expression array): −1
Refseq NM_001004328.1
  ZNF705A expression fc: 6.832
Refseq NM_001005464.2
  HIST2H3A expression fc: 4.945
Refseq NM_001005742.1
  GBA fc: −1.065
Refseq NM_001006610.1
  SIAH1 expression fc: 3.699
Refseq NM_001008213.1
  OPTN fc: −1.113
Refseq NM_001008539.2, cultured human skeletal muscle
  SLC7A2 expression fc: −2.482
Refseq NM_001008540.1
  CXCR4 expression fc: 2.004
Refseq NM_001009566.1
  fc of CLSTN1 (expression array): −1.009
Refseq NM_001009611.1
  PRAMEF4 expression fc: 7.06
Refseq NM_001010876.1
  C6orf191 expression fc: 2.091
Refseq NM_001010889.2
  PRAMEF6 expression fc: 5.826
Refseq NM_001010890.1
  PRAMEF9 expression fc: 7.131
Refseq NM_001012276.1
  PRAMEF8 expression fc: 3.701
Refseq NM_001012277.1
  PRAMEF7 expression fc: 7.631
